One assay has as its system platelet aggregability. The conditions noted are these: aspirin resistant or aspirin semiresponders; literature 2001-2004; cited from earlier work.
For assay [1] the following is noted: ESPS-2; J Neurol Sci. 1996; Neurology 1998; cited from earlier work.
The next assay concerns P-selectin. As to the kind of experiment: Flow cytometry: platelet expression of CD62p (P-selectin). It counts as cell-based, human. The conditions noted are these: non-responder blood, 45 min, baseline 10.0 ± 1.8. How it is done:
(§1) Aspirin/clopidogrel resistance is defined by lack of platelet inhibition after one month of mono- or combination therapy. Lack of platelet inhibition is defined when 4 out of the following 5 parameters are met: ADP-induced platelet aggregation remains >60%; collagen-induced aggregation >70%; whole blood aggregation >18 ohms; expression of GP IIb/IIIa >220 log MFI; and P-selectin cell positivity >8%.
(§2) Experiments are done (blood is incubated) with dipyridamole 2 μM/L and 4 μM/L.
Twenty ml of blood were collected from each participant, divided into 3 parts, and 2 parts were incubated for 45 min with 2 μM/L and 4 μM/L of Dipyridamole. This concentration corresponds to the physiological Dipyridamole concentration in plasma achieved 0.8-12 hours after oral administration of Aggrenox (25 mg of aspirin+200 mg of Dipyridamole). […]
Patients on other antithrombotic agents including COX inhibitors, and NSAID were excluded. […] Platelets were assessed by conventional (1 μM collagen, 0.75 μM arachidonic acid, and 5 μM ADP), and whole blood (1 mg/ml collagen) aggregometry; the expression of GP IIb/IIIa, P-selectin, annexin V binding, intact (SPAN12), and cleaved (WEDE15) PAR-1 thrombin receptors by flow cytometry. Markers of TR (D-Dimer, Thrombin-Antithrombin-III Complexes, and Prothrombin Fragment F1+2) were measured in the autologous plasma samples by ELISA.
Background: In flow cytometry, cells or beads pass a laser one at a time.

In a further assay the test system is platelets. Kind of assay: Platelet aggregation, conventional aggregometry, in blood of aspirin/clopidogrel resistant stroke/TIA patients pretreated in vitro with dipyridamole. It counts as cell-based, human. The conditions noted are these: for Platelet aggregation 5 μM ADP: baseline 65.5 ± 6.3; for Platelet aggregation Collagen 1 μM / Platelet aggregation Arachidonic Acid 0.75 μM: non-responder blood, 45 min; for Platelet aggregation Collagen 1 μM: baseline 65.9 ± 8.9; for Platelet aggregation Arachidonic Acid 0.75 μM: baseline 72.5 ± 9.5. The procedure:
as §1, §2
(§3) Twenty ml of blood were collected from each participant, divided into 3 parts, and 2 parts were incubated for 45 min with 2 μM/L and 4 μM/L of Dipyridamole. This concentration corresponds to the physiological Dipyridamole concentration in plasma achieved 0.8-12 hours after oral administration of Aggrenox (25 mg of aspirin+200 mg of Dipyridamole). The third portion was incubated with the vehicle and served as internal control.
(§4) Patients on other antithrombotic agents including COX inhibitors, and NSAID were excluded. Blood samples were pretreated with dipyridamole (2 mkg/ml, 4 mkg/ml), simulating the therapeutic range, and then incubated for 45 minutes at 37° C. Platelets were assessed by conventional (1 μM collagen, 0.75 μM arachidonic acid, and 5 μM ADP), and whole blood (1 mg/ml collagen) aggregometry; the expression of GP IIb/IIIa, P-selectin, annexin V binding, intact (SPAN12), and cleaved (WEDE15) PAR-1 thrombin receptors by flow cytometry. Markers of TR (D-Dimer, Thrombin-Antithrombin-III Complexes, and Prothrombin Fragment F1+2) were measured in the autologous plasma samples by ELISA.

Assay [2] relates to Thrombin receptor (PAR-1). As to the kind of experiment: Flow cytometry: intact (SPAN12) and cleaved (WEDE15) PAR-1 thrombin receptors on platelets. The class given is cell-based, human. The conditions noted are these: for Thrombin receptor (PAR-1) WEDE 15 (epitope of cleaved receptors) / Thrombin receptor (PAR-1) SPAN 12 (epitope of intact receptor): non-responder blood, 45 min; for Thrombin receptor (PAR-1) WEDE 15 (epitope of cleaved receptors): baseline 20.2 ± 3.4; for Thrombin receptor (PAR-1) SPAN 12 (epitope of intact receptor): baseline 31.6 ± 6.4. The procedure:
as §1, §2, §3, §4

The subject of assay [3] is Annexin V binding sites on platelets. As to the kind of experiment: Flow cytometry: Annexin V binding on platelets. It counts as cell-based, human. The conditions noted are these: for Annexin V binding (PS % positive cells): non-responder blood, 45 min, baseline 9.5 ± 2.7. How it is done:
as §1, §2, §3, §4

The next assay concerns GP IIb/IIIa. Kind of assay: Flow cytometry: platelet expression of CD41a (GP IIb/IIIa). It counts as cell-based, human. The note with it: for Flow-cytometry CD41a (GP IIb), MFI: non-responder blood, 45 min, baseline 429.0 ± 52.1. How it is done:
as §1, §2, §3, §4

Another assay deals with thrombin generation. As to the kind of experiment: Thrombin generation markers in autologous plasma by ELISA. It counts as cell-based, human. The note with it: for Prothrombin fragment F1 + 2 / Thrombin-antithrombin III Complex / Thrombin generation markers D-dimer: non-responder blood, 45 min; for Prothrombin fragment F1 + 2: baseline 1.9 ± 1.0; for Thrombin-antithrombin III Complex: baseline 3.2 ± 1.1; for Thrombin generation markers D-dimer: baseline 325.0 ± 84.6. The procedure:
as §1, §2, §3, §4
Background: ELISA stands for enzyme-linked immunosorbent assay.

The mark [4] stands for this setting: DIP in vitro, 2 and 4 mkg/ml, blood of AR patients, listed as DIP.
The mark [5] stands for this setting: addition of DIP in vitro in AR patients.
Setting [6] is: Dipyridamole 4 μg/ml, p = 0.022.

“Also recorded” adds a separate entry of the source.

For the compound `CC(=O)Oc1ccccc1C(=O)O` [ASA, acetylsalicylic acid], the “patients treated with ASA who did not show appropriate reduction in platelet aggregability” value with platelet aggregability is “up to 30%”.
For the compound `OCCN(CCO)c1nc(N2CCCCC2)c2nc(N(CCO)CCO)nc(N3CCCCC3)c2n1` [Dipyridamole, 2,6-bis(diethanolamino)-4,8-dipiperidino-pyrimido[5,4-d]pyrimidine], the “reduction of stroke risk” value in assay [1] is “as effective as low-dose aspirin”. The “Flow-cytometry CD62p (P-selectin), % +” value in the assay with P-selectin (Dipyridamole 2 μg/ml, p = 0.308) was found to be 9.4 ± 2.8 % +; in the assay on P-selectin (Dipyridamole 4 μg/ml, p = 0.21) it was 9.4 ± 2.4 % +. Besides, the “Platelet aggregation / aggregometry (in words)” value with platelets (setting [4]) was “not affected; also recorded: not changed”. The “Platelet aggregation 5 μM ADP” value in the assay on platelets (non-responder blood (n = 20) incubated 45 min at 37° C. with Dipyridamole 2 μg/ml, p = 0.13) stood at 63.6 ± 6.8%; in the assay on platelets (non-responder blood (n = 20) incubated 45 min at 37° C. with Dipyridamole 4 μg/ml, p = 0.66), 63.8 ± 6.8%. Moreover, the “Platelet aggregation Collagen 1 μM” value in the assay on platelets (Dipyridamole 2 μg/ml, p = 0.13) was 64.2 ± 7.4%; in the assay with platelets (Dipyridamole 4 μg/ml, p = 0.38) it was 64.2 ± 6.9%. The “Platelet aggregation Arachidonic Acid 0.75 μM” value with platelets (Dipyridamole 2 μg/ml, p = 0.41) came to 71.4 ± 7.3; with platelets (Dipyridamole 4 μg/ml, p = 0.12) it was 70.6 ± 6.2. Besides, the “PAR-1 receptors (in words)” value in assay [2] (setting [5]) was “sustained blockade”. Further, the “expression of intact PAR-1 receptor (in words)” value in assay [2] (after incubation with 2 mkg/ml and 4 mkg/ml of dipyridamole (p=0.02 and p=0.024)) is “diminished expression”. The “Thrombin receptor (PAR-1) WEDE 15 (epitope of cleaved receptors)” value in assay [2] (Dipyridamole 2 μg/ml, p = 0.0507) came out at 18.4 ± 3.1; in assay [2] (setting [6]), 18.1 ± 3.0. Besides, the “Thrombin receptor (PAR-1) SPAN 12 (epitope of intact receptor)” value was 27.8 ± 5.4 in assay [2] (Dipyridamole 2 μg/ml, p = 0.02) and 29.1 ± 5.5 in assay [2] (Dipyridamole 4 μg/ml, p = 0.024). Further, in assay [2] (only after incubation with 4 mkg/ml, statistically significant (p=0.022)), the “activity of the cleaved PAR-1 (in words)” value was “decreased activity”. Also, the “annexin V binding (in words)” value in assay [3] (after incubation with 2 mkg/ml and 4 mkg/ml of dipyridamole (p=0.031 and p=0.02), listed as DIP) was “diminished; also recorded: sustained blockade”. Further, in assay [3] (incubation of cells with DIP, patients with anti-platelet therapy resistance, e.g. ASA or clopidogrel resistance), the “Annexin V binding sites compared to pre-incubation” value is “significant reduction”. Further, the “Annexin V binding (PS % positive cells)” value in assay [3] (Dipyridamole 2 μg/ml, p = 0.031) was 7.9 ± 2.3 % positive cells; in assay [3] (setting [6]), 7.7 ± 1.9 % positive cells. The “GP IIb/IIIa (in words)” value in the assay with GP IIb/IIIa (setting [5]) is recorded as “sustained blockade”. Moreover, the “Flow-cytometry CD41a (GP IIb), MFI” value in the assay on GP IIb/IIIa (Dipyridamole 2 μg/ml, p = 0.12) turned out to be 417.6 ± 49.5 MFI; in the assay on GP IIb/IIIa (Dipyridamole 4 μg/ml, p = 0.22), 419.4 ± 49.1 MFI. In addition, in the assay on thrombin generation (setting [4]), the “TG markers / TR markers (in words)” value is “not affected; also recorded: not changed”. In addition, the “Prothrombin fragment F1 + 2” value is 1.8 ± 1.0 nM/L in the assay on thrombin generation (Dipyridamole 2 μg/ml, p = 0.17) and 1.8 ± 0.9 nM/L in the assay on thrombin generation (Dipyridamole 4 μg/ml, p = 0.41). For the same compound, the “Thrombin-antithrombin III Complex” value is 3.2 ± 1.2 µg/L with thrombin generation (Dipyridamole 2 μg/ml, p = 0.49) and 3.1 ± 1.2 µg/L with thrombin generation (Dipyridamole 4 μg/ml, p = 0.24). Further, the “Thrombin generation markers D-dimer” value in the assay with thrombin generation (Dipyridamole 2 μg/ml, p = 0.55) came to 316.1 ± 90.1 µg/L; with thrombin generation (Dipyridamole 4 μg/ml, p = 0.48), 310.8 ± 83.8 µg/L.

The values are drawn from patent publication US20090048173A1, “Use Of Dipyridamole For Treatment Of Resistance To Platelet Inhibitors” (priority 2004, published 2009).
